According to patent US4853221A, “Method for treating non-small cell lung cancer, head and neck cancers and breast cancer” (Warner-Lambert Company, priority 1987, dated 1989):

Tests used:
Miscell. tumors = experiment: Human tumor cloning system, miscellaneous tumors; type: cell-based; settings: one hour, 10 specimens
Description: (§1) The activity of trimetrexate was compared with that of methotrexate in tests with a human tumor cloning system (Latham, et al., Proc. Am. Assoc. Cancer Res., 24: 278 (1983)). The data from these tests appear in Table III were the activities are expressed as the numbers of tumors with 50% or greater reduction in tumor colony forming units after one hour exposure to the drug.

B-Cell 8392 = experiment: Inhibition of B-Cell 8392 growth in vitro; type: cell-based, human; settings: 48 h; Human B-Cell 8392; read-out: ED50 (the source's name)
Procedure: (§2) Logarithmically growing L1210 cells (approximately 3×10^5 cells/ml) were diluted with Fischer's medium (containing 10% horse serum) to an approximate concentration of 5×10^4 cells/ml. Cells were planted in duplicate into 15 ml culture tubes containing either no drug or various amounts of drug, and incubated for 48 hours at 37° C. before being counted.
(§3) Trimetrexate was also evaluated in a similar manner side-by-side with methotrexate for its effect on the growth of three additional murine cell lines (L5178Y, Sarcoma-180, and Walkler-256) and three human cell lines (acute myelogenous leukemia K-562, T-cell 8402, and B-cell 8392), propagated in vitro.

[1] = system: head and neck (squamous) cancers; experiment: Phase I clinical trials, head and neck (squamous) cancers; type: in vivo, human; settings: single agent
Procedure: (§4) Several Phase I clinical trials employing trimetrexate in human patients were carried out. In one study, 36 patients were treated with trimetrexate as a single agent at daily doses of 0.5 mg/m^2 /day to 12 mg/m^2 /day administered intravenously for five days.
(§5) In additional Phase I clinical studies, patients were administered trimetrexate with single intravenous doses ranging between 5 and 450 mg/m^2 and with weekly doses of slightly greater than 100 mg/m^2.

L1210 = experiment: Antitumor activity against L1210 leukemia in mice; type: in vivo, mouse; settings: for Life Span % ILS / Life Span % T/C: ip daily, Days 1-9
Procedure: (§6) The growth inhibition properties of 5-methyl-6-[[(3,4,5-trimethoxyphenyl)amino]methyl]-2,4-quinazolinediamine (trimetrexate) against several transplanted murine tumors were evaluated employing the antitumor screening program of the Drug Evaluation Branch of the National Cancer Institute. The protocols for these tests is described in Cancer Chemotherapy Reports, 3: 1-103 (1972). The dosing schedules are results from these tests appear in Table IV.
In the L1210, P388, and B-16 melanoma models, results are expressed as a percentage of median control survival time. Percentage of increase in survival time and/or cures (30 day survivors) were the parameters used to measure the effectiveness of the agents. An initial median survival value for treated over control percentage (% T/C) equal to or greater than 125% was considered indicative of activity. For confirmatory activity, two multidose assays must show % T/C values equal to or greater than 150%.
(§7) Percent increase in median life span (% ILS) values appearing in the tables were calculated from the formula; 100×(median life span in days of treated mice minus median life span in days of untreated mice) divided by median life span in days of untreated control mice. That is, % ILS=[100×(T-C)]/C. % T/C and %ILS are directly interconvertible by the formula % ILS=% T/C -100.
L1210 Leukemic Cells (10^5 /mouse) and P388 leukemic cells (10^6 /mouse)were in the ascites form and were transferred to BD2F1 or CD2F1 mice by intraperitoneal (ip) injection of 0.1 ml of cells taken from animals bearing 6- to 7-day old tumors. Leukemic cells were injected ip one day prior to the start of treatment.
(§8) In all of the mouse tumor studies described above, routine controls consisted of matching ten normal mice (with no tumors) to each tumor-bearing treatment group and injecting them with the same drug at the same dosages, schedules, days of administration, and drug route as the tumor-bearing mice. In this way, drug-induced toxicity (lethality and weight loss) could be clearly separated from the effects of the drug on the tumors.

T-Cell 8402 = experiment: Inhibition of T-Cell 8402 growth in vitro; type: cell-based, human; settings: 48 h; Human T-Cell 8402; read-out: ED50 (the source's name)
Procedure: as §2, §3

cancer of the pancreas = experiment: Phase I clinical trials, cancer of the pancreas; type: in vivo, human; settings: single agent
Procedure: as §4, §5

Melanoma = experiment: Human tumor cloning system, melanoma; type: cell-based; settings: one hour, 5 specimens
Description: as §1

Colon 38 = experiment: Antitumor activity against colon adenocarcinoma 38 in mice; type: in vivo, mouse
[2] = system: non-small cell lung cancer; experiment: Phase I clinical trials, non-small cell lung cancer; type: in vivo, human; settings: single agent
Procedure: as §4, §5

colon carcinoma = experiment: Phase I clinical trials, colon carcinoma; type: in vivo, human; settings: single agent
Procedure: as §4, §5

human tumor cultures = experiment: Human tumor cloning system, all tumors; type: cell-based; settings: for Number of Tumors with 50% or Greater Decrease in Tumor Colony Forming Units: Totals, one hour, 54 specimens
Description: as §1

[3] = system: metastatic squamous cell cancer of the head and neck; experiment: Phase II trial, metastatic squamous cell cancer of the head and neck; type: in vivo, human
Procedure: The efficacy and safety of trimetrexate in the treatment of patients with metastatic squamous cell cancer of the head and neck was evaluated in an 11-center Phase II study.
The primary sites of disease in the patients included head and neck (not otherwise specified), hypopharynx, floor of the mouth, oropharynx, tongue, and other parts of the mouth, nasal cavity, and larynx.
Patients were initially treated intravenously with 8 mg/m^2 /day of trimetrexate on Days 1 through 5 of a 21-day treatment cycle. Patients were evaluated after each treatment course and were withdrawn from the study if progressive disease was documented. Patients were eligible to received six courses of treatment if stable disease was documented, or were eligible to receive continued treatment with trimetrexate if a response was documented.

Colon 26 = experiment: Antitumor activity against colon adenocarcinoma 26 in mice; type: in vivo, mouse; settings: for Life Span % ILS / Life Span % T/C: ip every 4 days, Days 1-5
Procedure: as §6, §7
Colon adenocarcinoma Nos. 26 and 38. Colon adenocarcinoma 26 was propagated in Balb/cj mice for 12 to 15 days. After this time, 0.5 ml of a 1% tumor brei, prepared from several excised subcutaneously passaged tumors, was implanted intraperitoneally into CDF1 mice. Animals were treated with drug ip on Days 1 and 5 following tumor implantation. The median survival time of the treated animals was determined and expressed as a percentage of the median survival time of untreated control animals.
as §8

Ovarian tumor = experiment: Human tumor cloning system, ovarian tumors; type: cell-based; settings: one hour, 6 specimens
Description: as §1

[4] = optimal dose 20 mg/kg (dose range 80-5)
[5] = optimal dose 80 mg/kg (dose range 80-5)
[6] = optimal dose 30 mg/kg (dose range 120-3.75)
[7] = optimal dose 60 mg/kg (dose range 120-3.75)

In the case of `COc1cc(NCc2ccc3nc(N)nc(N)c3c2C)cc(OC)c1OC` [Trimetrexate, 5-methyl-6-[[(3,4,5-trimethoxyphenyl)amino]methyl]-2,4-quinazolinediamine], the “Number of Tumors with 50% or Greater Decrease in Tumor Colony Forming Units” value (Miscell. tumors; trimetrexate 0.1 μg/ml) is reported as 2, the “Number of Tumors with 50% or Greater Decrease in Tumor Colony Forming Units” value (Miscell. tumors; trimetrexate 1.0 μg/ml) is reported as 1 and the IC50 (B-Cell 8392) is reported as 5 nM. The “patients with favorable responses” value [1] was “two”, the “antitumor activity” value (L1210; mouse, in vivo) was “good activity” and the “Life Span % ILS” value (L1210; [4]) was 72%. The “Life Span % T/C” value (L1210; [4]) was 172%, the “Life Span % ILS” value (L1210; [5]) was 96% and the “Life Span % T/C” value (L1210; [5]) was 196%. For the same compound, the IC50 (T-Cell 8402) was 10 nM, the “patients with favorable responses” value (cancer of the pancreas) was “one” and the “Number of Tumors with 50% or Greater Decrease in Tumor Colony Forming Units” value (Melanoma; trimetrexate 0.1 μg/ml) was 2. For the same compound, the “Number of Tumors with 50% or Greater Decrease in Tumor Colony Forming Units” value (Melanoma; trimetrexate 1.0 μg/ml) was 3, the “antitumor activity” value (Colon 38; mouse, in vivo) was “good activity” and the “Tumor Weight Inhibition % TWI” value (Colon 38; optimal dose 60 mg/kg (dose range 60-1.88), Sc every 7 days, Days 2-9) was 85%. The “patients with favorable responses” value [2] was “two”, the “patients with favorable responses” value (colon carcinoma) was “four” and the “Number of Tumors with 50% or Greater Decrease in Tumor Colony Forming Units” value (human tumor cultures; trimetrexate 0.1 μg/ml) was 11. For the same compound, the “Number of Tumors with 50% or Greater Decrease in Tumor Colony Forming Units” value (human tumor cultures; trimetrexate 1.0 μg/ml) was 13, the “human tumor cultures sensitive to trimetrexate and resistant to methotrexate” value (human tumor cultures; trimetrexate 0.1 μg/ml, methotrexate 0.3 μg/ml, 8/54) was 15% and the “patients with partial response” value ([3]; 38 evaluable patients, initial 8 mg/m^2/day iv Days 1-5 of 21-day cycle) was “Ten”. For the same compound, the partial response rate ([3]; 95% confidence interval 12-40%, evaluable patients) was 26%, the “patients with stable disease” value ([3]; in vivo) was “Nineteen” and the “median duration of response” value ([3]; range 4.1-59+ weeks, ten responders) was 12.2 weeks. The “median time to progressive disease” value ([3]; range 9.3-74+ weeks) was 19.1 weeks, the “antitumor activity” value (Colon 26; mouse, in vivo) was “good activity” and the “Life Span % ILS” value (Colon 26; [6]) was 56%. The “Life Span % T/C” value (Colon 26; [6]) was 156%, the “Life Span % ILS” value (Colon 26; [7]) was 115% and the “Life Span % T/C” value (Colon 26; [7]) was 215%. For the same compound, the “Number of Tumors with 50% or Greater Decrease in Tumor Colony Forming Units” value (Ovarian tumor; trimetrexate 0.1 μg/ml) was 1 and the “Number of Tumors with 50% or Greater Decrease in Tumor Colony Forming Units” value (Ovarian tumor; trimetrexate 1.0 μg/ml) was 1.
